{"source": "patent US6355799B1", "about": "“Substituted benzene compounds, process for their preparation, and herbicidal and defoliant compositions containing them” (ISK Americas Incorporated, priority 1997, dated 2002)", "type_in_all_cases": "in vivo", "key": {"[1]": {"system": "redroot pigweed (Amaranthus retroflexus, AMARE)", "test": "Pre-emerge test, greenhouse herbicide activity screening", "conditions": "rated 14 days after application, 0 = no damage, 100 = complete death", "procedure,_shortened": "(§1)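 Compounds in acetone were track-sprayed at 15-1000 g ai/ha (187 l/ha) on sandy loam pots: pre-emerge one day after seeding, post-emerge at 2-3 leaf stage with 0.25% v/v non-ionic surfactant. Phytotoxicity was rated 14 days later on a 0 (no damage) to 100 (complete death) scale.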"}, "[2]": {"system": "barnyardgrass (Echinochloa crus-galli, ECHCG)", "test": "Pre-emerge test, greenhouse herbicide activity screening", "conditions": "rated 14 days after application, 0 = no damage, 100 = complete death", "procedure,_shortened": "(§2)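 Sandy loam pots; pre-emerge: sown 1 d pre-spray, surface-watered after, then bottom-watered. Post-emerge: sown 8–21 d before, 2–3 leaf stage, + 0.25% v/v NIS, bottom-watered. Acetone, 187 l/ha track spray, 15–1000 g ai/ha. 0–100 injury score, day 14.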"}, "[3]": {"system": "common ragweed (Ambrosia artemisizfolia L., AMBEL)", "test": "Pre-emerge test, greenhouse herbicide activity screening", "conditions": "rated 14 days after application, 0 = no damage, 100 = complete death", "procedure,_shortened": "as §2"}, "[4]": {"system": "green foxtail (Setaria viridis, SETVI)", "test": "Pre-emerge test, greenhouse herbicide activity screening", "conditions": "rated 14 days after application, 0 = no damage, 100 = complete death", "procedure,_shortened": "as §2"}, "[5]": {"system": "ivyleaf morningglory (Ipomoea hederacea, IPOHE)", "test": "Pre-emerge test, greenhouse herbicide activity screening", "conditions": "rated 14 days after application, 0 = no damage, 100 = complete death", "procedure,_shortened": "as §2"}, "[6]": {"system": "johnsongrass (Sorghum halepense, SORHA)", "test": "Pre-emerge test, greenhouse herbicide activity screening", "conditions": "rated 14 days after application, 0 = no damage, 100 = complete death", "procedure,_shortened": "as §2"}, "[7]": {"system": "lambsquarters (Chenopodium album, CHEAL)", "test": "Pre-emerge test, greenhouse herbicide activity screening", "conditions": "rated 14 days after application, 0 = no damage, 100 = complete death", "procedure,_shortened": "as §2"}, "[8]": {"system": "large crabgrass (Digitaria sanguinalis, DIGSA)", "test": "Pre-emerge test, greenhouse herbicide activity screening", "conditions": "rated 14 days after application, 0 = no damage, 100 = complete death", "procedure,_shortened": "as §2"}, "[9]": {"system": "sicklepod (Cassia obtusifolia, CASOB)", "test": "Pre-emerge test, greenhouse herbicide activity screening", "conditions": "rated 14 days after application, 0 = no damage, 100 = complete death", "procedure,_shortened": "as §2"}, "[10]": {"system": "velvetleaf (Abutilon theophrasti, ABUTH)", "test": "Pre-emerge test, greenhouse herbicide activity screening", "conditions": "rated 14 days after application, 0 = no damage, 100 = complete death", "procedure,_shortened": "as §2"}, "[11]": {"system": "field corn (Zea mays L., var. Dekalb 535, CORN)", "test": "Pre-emerge test, crop safety", "conditions": "rated 14 days after application, 0 = no damage, 100 = complete death", "procedure,_shortened": "(§3)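 Compounds in acetone were track-sprayed at 187 l/ha, 15–1000 g ai/ha, onto sandy loam pots. Pre-emerge seeds were sown one day before spraying, with surface watering afterwards. Post-emerge plants were at the 2–3 leaf stage and sprayed with 0.25% v/v non-ionic surfactant. Injury was rated 0–100 at 14 days.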"}, "[12]": {"system": "upland rice (Oryza sp., var. Tebonnet, RICE)", "test": "Pre-emerge test, crop safety", "conditions": "rated 14 days after application, 0 = no damage, 100 = complete death", "procedure,_shortened": "as §3"}, "[13]": {"system": "barnyardgrass (Echinochloa crus-galli, ECHCG)", "test": "Post-emerge test, greenhouse herbicide activity screening", "conditions": "post-emerge, 14 days after application, rating scale 0-100", "procedure,_shortened": "as §1"}, "[14]": {"system": "common ragweed (Ambrosia artemisizfolia L., AMBEL)", "test": "Post-emerge test, greenhouse herbicide activity screening", "conditions": "post-emerge, 14 days after application, rating scale 0-100", "procedure,_shortened": "as §1"}, "[15]": {"system": "green foxtail (Setaria viridis, SETVI)", "test": "Post-emerge test, greenhouse herbicide activity screening", "conditions": "post-emerge, 14 days after application, rating scale 0-100", "procedure,_shortened": "as §1"}, "[16]": {"system": "ivyleaf morningglory (Ipomoea hederacea, IPOHE)", "test": "Post-emerge test, greenhouse herbicide activity screening", "conditions": "post-emerge, 14 days after application, rating scale 0-100", "procedure,_shortened": "as §1"}, "[17]": {"system": "johnsongrass (Sorghum halepense, SORHA)", "test": "Post-emerge test, greenhouse herbicide activity screening", "conditions": "post-emerge, 14 days after application, rating scale 0-100", "procedure,_shortened": "as §1"}, "[18]": {"system": "lambsquarters (Chenopodium album, CHEAL)", "test": "Post-emerge test, greenhouse herbicide activity screening", "conditions": "post-emerge, 14 days after application, rating scale 0-100", "procedure,_shortened": "as §1"}, "[19]": {"system": "large crabgrass (Digitaria sanguinalis, DIGSA)", "test": "Post-emerge test, greenhouse herbicide activity screening", "conditions": "post-emerge, 14 days after application, rating scale 0-100", "procedure,_shortened": "as §1"}, "[20]": {"system": "redroot pigweed (Amaranthus retroflexus, AMARE)", "test": "Post-emerge test, greenhouse herbicide activity screening", "conditions": "post-emerge, 14 days after application, rating scale 0-100", "procedure,_shortened": "as §1"}, "[21]": {"system": "sicklepod (Cassia obtusifolia, CASOB)", "test": "Post-emerge test, greenhouse herbicide activity screening", "conditions": "post-emerge, 14 days after application, rating scale 0-100", "procedure,_shortened": "as §1"}, "[22]": {"system": "velvetleaf (Abutilon theophrasti, ABUTH)", "test": "Post-emerge test, greenhouse herbicide activity screening", "conditions": "post-emerge, 14 days after application, rating scale 0-100", "procedure,_shortened": "as §1"}, "[23]": {"system": "field corn (Zea mays L., var. Dekalb 535, CORN)", "test": "Post-emerge test, crop safety", "conditions": "post-emerge, 14 days after application, rating scale 0-100", "procedure,_shortened": "as §2"}, "[24]": {"system": "upland rice (Oryza sp., var. Tebonnet, RICE)", "test": "Post-emerge test, crop safety", "conditions": "post-emerge, 14 days after application, rating scale 0-100", "procedure,_shortened": "as §2"}}, "data": [{"smiles": "COc1c(Cl)cc(F)c(-n2c(=O)cc(C(F)(F)F)n(C)c2=O)c1NC(=O)c1ccc(Cl)cc1Cl", "note": "[2-58]", "values": [{"measurement": "Pre-emerge Herbicidal Activity, phytotoxicity rating (0-100), AMARE", "setting": "[1]; 63 g ai/ha", "result": 100}, {"measurement": "Pre-emerge Herbicidal Activity, phytotoxicity rating (0-100), AMARE", "setting": "[1]; 250 g ai/ha", "result": 100}, {"measurement": "Pre-emerge Herbicidal Activity, phytotoxicity rating (0-100), ECHCG", "setting": "[2]; 63 g ai/ha", "result": 50}, {"measurement": "Pre-emerge Herbicidal Activity, phytotoxicity rating (0-100), ECHCG", "setting": "[2]; 250 g ai/ha", "result": 100}, {"measurement": "Pre-emerge Herbicidal Activity, phytotoxicity rating (0-100), AMBEL", "setting": "[3]; 63 g ai/ha", "result": 50}, {"measurement": "Pre-emerge Herbicidal Activity, phytotoxicity rating (0-100), AMBEL", "setting": "[3]; 250 g ai/ha", "result": 100}, {"measurement": "Pre-emerge Herbicidal Activity, phytotoxicity rating (0-100), SETVI", "setting": "[4]; 63 g ai/ha", "result": 100}, {"measurement": "Pre-emerge Herbicidal Activity, phytotoxicity rating (0-100), SETVI", "setting": "[4]; 250 g ai/ha", "result": 100}, {"measurement": "Pre-emerge Herbicidal Activity, phytotoxicity rating (0-100), IPOHE", "setting": "[5]; 63 g ai/ha", "result": 20}, {"measurement": "Pre-emerge Herbicidal Activity, phytotoxicity rating (0-100), IPOHE", "setting": "[5]; 250 g ai/ha", "result": 100}, {"measurement": "Pre-emerge Herbicidal Activity, phytotoxicity rating (0-100), SORHA", "setting": "[6]; 63 g ai/ha", "result": 70}, {"measurement": "Pre-emerge Herbicidal Activity, phytotoxicity rating (0-100), SORHA", "setting": "[6]; 250 g ai/ha", "result": 100}, {"measurement": "Pre-emerge Herbicidal Activity, phytotoxicity rating (0-100), CHEAL", "setting": "[7]; 63 g ai/ha", "result": 100}, {"measurement": "Pre-emerge Herbicidal Activity, phytotoxicity rating (0-100), CHEAL", "setting": "[7]; 250 g ai/ha", "result": 100}, {"measurement": "Pre-emerge Herbicidal Activity, phytotoxicity rating (0-100), DIGSA", "setting": "[8]; 63 g ai/ha", "result": 90}, {"measurement": "Pre-emerge Herbicidal Activity, phytotoxicity rating (0-100), DIGSA", "setting": "[8]; 250 g ai/ha", "result": 100}, {"measurement": "Pre-emerge Herbicidal Activity, phytotoxicity rating (0-100), CASOB", "setting": "[9]; 63 g ai/ha", "result": 30}, {"measurement": "Pre-emerge Herbicidal Activity, phytotoxicity rating (0-100), CASOB", "setting": "[9]; 250 g ai/ha", "result": 99}, {"measurement": "Pre-emerge Herbicidal Activity, phytotoxicity rating (0-100), ABUTH", "setting": "[10]; 63 g ai/ha", "result": 100}, {"measurement": "Pre-emerge Herbicidal Activity, phytotoxicity rating (0-100), ABUTH", "setting": "[10]; 250 g ai/ha", "result": 100}, {"measurement": "Pre-emerge phytotoxicity rating (0-100), crop damage, CORN", "setting": "[11]; 63 g ai/ha", "result": 40}, {"measurement": "Pre-emerge phytotoxicity rating (0-100), crop damage, CORN", "setting": "[11]; 250 g ai/ha", "result": 95}, {"measurement": "Pre-emerge phytotoxicity rating (0-100), crop damage, RICE", "setting": "[12]; 63 g ai/ha", "result": 80}, {"measurement": "Pre-emerge phytotoxicity rating (0-100), crop damage, RICE", "setting": "[12]; 250 g ai/ha", "result": 95}, {"measurement": "phytotoxicity rating ECHCG", "setting": "[13]; 63 g ai/ha", "result": 20}, {"measurement": "phytotoxicity rating ECHCG", "setting": "[13]; 250 g ai/ha", "result": 90}, {"measurement": "phytotoxicity rating AMBEL", "setting": "[14]; 63 g ai/ha", "result": 100}, {"measurement": "phytotoxicity rating AMBEL", "setting": "[14]; 250 g ai/ha", "result": 100}, {"measurement": "phytotoxicity rating SETVI", "setting": "[15]; 63 g ai/ha", "result": 50}, {"measurement": "phytotoxicity rating SETVI", "setting": "[15]; 250 g ai/ha", "result": 60}, {"measurement": "phytotoxicity rating IPOHE", "setting": "[16]; 63 g ai/ha", "result": 95}, {"measurement": "phytotoxicity rating IPOHE", "setting": "[16]; 250 g ai/ha", "result": 100}, {"measurement": "phytotoxicity rating SORHA", "setting": "[17]; 63 g ai/ha", "result": 20}, {"measurement": "phytotoxicity rating SORHA", "setting": "[17]; 250 g ai/ha", "result": 90}, {"measurement": "phytotoxicity rating CHEAL", "setting": "[18]; 63 g ai/ha", "result": 100}, {"measurement": "phytotoxicity rating CHEAL", "setting": "[18]; 250 g ai/ha", "result": 100}, {"measurement": "phytotoxicity rating DIGSA", "setting": "[19]; 63 g ai/ha", "result": 10}, {"measurement": "phytotoxicity rating DIGSA", "setting": "[19]; 250 g ai/ha", "result": 40}, {"measurement": "phytotoxicity rating AMARE", "setting": "[20]; 63 g ai/ha", "result": 100}, {"measurement": "phytotoxicity rating AMARE", "setting": "[20]; 250 g ai/ha", "result": 100}, {"measurement": "phytotoxicity rating CASOB", "setting": "[21]; 63 g ai/ha", "result": 100}, {"measurement": "phytotoxicity rating CASOB", "setting": "[21]; 250 g ai/ha", "result": 100}, {"measurement": "phytotoxicity rating ABUTH", "setting": "[22]; 63 g ai/ha", "result": 100}, {"measurement": "phytotoxicity rating ABUTH", "setting": "[22]; 250 g ai/ha", "result": 100}, {"measurement": "phytotoxicity rating CORN", "setting": "[23]; 63 g ai/ha", "result": 40}, {"measurement": "phytotoxicity rating CORN", "setting": "[23]; 250 g ai/ha", "result": 90}, {"measurement": "phytotoxicity rating RICE", "setting": "[24]; 63 g ai/ha", "result": 50}, {"measurement": "phytotoxicity rating RICE", "setting": "[24]; 250 g ai/ha", "result": 85}]}]}
